Experimental findings from ChEMBL document CHEMBL5321247, “Discovery of NXT-10796, an orally active, intestinally restricted EP4 agonist prodrug for the treatment of inflammatory bowel disease” (Bioorg Med Chem Lett, 2023) are described below.

Data set [1] in a line: Drug uptake in BALB/c mouse Feces at 1 mg/kg, po measured at 24 hrs. Format: ADME, organism-based. The conditions noted are these: in vivo.
Data set [2] in a line: Drug uptake in BALB/c mouse Colon at 1 mg/kg, po. It is filed as ADME, organism-based. As to conditions: in vivo.
The nature of data set [3]: Drug uptake in BALB/c mouse Colon at 1 mg/kg, po measured at 24 hrs. It is filed as ADME, organism-based. As to conditions: in vivo.
A short description of data set [4]: Cmax in BALB/c mouse plasma at 1 mg/kg, po or iv measured at 24 hrs. Format: ADME, organism-based. Also noted: dose 1 mg/kg, time 24 hrs, route po.
Data set [5] can be described thus: Drug uptake in BALB/c mouse Feces at 1 mg/kg, po. The conditions noted are these: in vivo. It is filed as ADME, organism-based.
Data set [6] is described as follows: Oral bioavailability in BALB/c mouse at 1 mg/kg measured at 24 hrs. It is filed as ADME, organism-based. As to conditions: in vivo.
Data set [7] in a line: Drug uptake in BALB/c mouse plasma at 1 mg/kg, po or iv. It is filed as ADME, organism-based. As to conditions: in vivo.
The test system of data set [8] is Mus musculus. The data set can be described thus: In vivo agonist activity at EP4 in po dosed C57BL/6J mouse assessed as increase in renin level in plasma at 10 mg/kg, po measured after 2 hrs. Format: functional, organism-based.
Data set [9] can be described thus: In vivo agonist activity at EP4 in po dosed C57BL/6J mouse assessed as increase in Ccl5 expression in colon administered for 3 days by qPCR analysis. Format: organism-based. The conditions noted are these: 72 h, dose 1-5 mg/kg, time 3 day. (In qPCR the cycle at which signal appears reflects the starting amount.)

Activity calls are given as the source filed them. The calls are words filed in the database; no cut-off is given here.

As a reminder, the Cmax is the highest concentration seen after dosing. What is called bioavailability is the share of a dose that reaches the circulation, judged against a reference dose that is usually intravenous. On to `O=C(O)CCCCCCN1C(=O)CC[C@@H]1/C=C/[C@@H](O)Cc1ccccc1`, for which the Drug uptake result in data set [1], in data set [2], in data set [3] and in data set [5] was “Active” in each case. Besides, the highest concentration (Cmax) in data set [4] is about 50 nM. In addition, the bioavailability in data set [6] is 3%.

For `O=C(CCCCCCN1C(=O)CC[C@@H]1/C=C/[C@@H](O)Cc1ccccc1)NS(=O)(=O)c1ccccc1`, the values for the Drug uptake result in [1], in data set [3] and in data set [7] were “Active”, “Active” and “Not Active”, respectively.

As to `O=C(CCCCCCN1C(=O)CC[C@@H]1/C=C/[C@@H](O)Cc1ccccc1)NNC(=O)C(=O)O`, the result in data set [8] was inactive. Also, the Activity entry in data set [9] was “Dose-Dependent Effect”.
